The test system of the experiment is PA/PB1 HEK293T (Teton) cell line. In words: Dox-controlled inducible PA/PB1 expression, luciferase activity and Western blotting. Type of experiment: cell-based. Conditions: Dox 300 ng/mL, 16 h, PA/PB1 HEK293T (Teton) cells. The procedure: To detect the influence of Doxycycline (Dox) (purchased from Sigma) on controlled inducible PA/PB1 expression, 100,000 PA/PB1 HEK293T (Teton) cells and 300 μL DMEM complete medium were plated in each well of a 48 well plate. After 24 h, Dox was added at concentrations of 0, 10, 30, 100, 300 ng/mL respectively. After 16 h, culture medium in supernatant was removed, and lysis was performed on ice for 10 min using 80 μL renilla luciferase lysate (purchased from Promega, E2820), lysate was mixed by pipetting, 50 μL cell lysate was transferred into a plate for luciferase detection (purchased from PE), 20 μL renilla luciferase substrate (purchased from Promega, E2820) was added into each well, and luciferase activity was detected by a microplate reader (purchased from Bio-Tek, SynergyH1). The remaining 30 μL lysate was used for immune blotting (Western Blotting), the primary antibody used was Anti-Gluc (purchased from NEB), the secondary antibody used was HRP-conjugated Donkey Anti-Rabbit (purchased from Jackson), and expression of PA/PB1 with Gluc fusion tag could be detected by a scanner (purchased from Bio-rad).
When Dox was not added into the PA/PB1 HEK293T (Teton) cell line, luciferase activity of PA/PB1 interaction was the background. […] When Dox was added at a concentration of 300 ng/mL, the difference between its signal value and the background signal value was up to 200 times.
In general terms: A western blot detects proteins with antibodies after separation by electrophoresis.

As to `C[C@H]1c2cccc(O)c2C(=O)C2=C(O)[C@]3(O)C(=O)C(C(N)=O)=C(O)[C@@H](N(C)C)[C@@H]3[C@@H](O)[C@@H]21` [Dox, Doxycycline], the “difference between signal value and background signal value (luciferase activity of PA/PB1 interaction)” value is listed as “up to 200 times”.

These data come from patent publication US10526634B2, “Cell line for screening influenza virus polymerase assembly inhibitor and construction method thereof” (Suzhou Institute of Systems Medicine, priority 2015, dated 2020).
